Consider one compound from US20230190717A1, “P38 GAMMA INHIBITORS AND METHOD OF USE THEREOF” (City of Hope, priority 2017, published 2023).

Series [1] concerns the target T1, human recombinant p38 α protein (Homo sapiens, UniProt Q16539).
T1 construct: human recombinant p38 α, β, γ or δ protein (active full-length); purchased SignalChem; host or cells: baculovirus in Sf9 insect cells
Put plainly: ADP-Glo in vitro kinase assay, p38α. Format: biochemical. The procedure:
(§1) Kinase assay in vitro: Kinase enzyme assays in vitro were performed using ADP-Glo kit (Promega, Wis.). The luminescent ADP-Glo kinase assay measures ADP produced from ATP consumption in a kinase enzyme reaction. All compounds have been tested and shown no inhibition to luciferase activities. Briefly, in this experiment, human recombinant p38 α, β, γ or δ protein (active full-length) expressed by baculovirus in sf9 insect cells (SignalChem, Vancouver, Canada) was homogenized in wells of white opaque 96-well microplates with the kinase buffer that consisted of 40 mM Tris-HCl (pH 7.5), 20 mM MgCl2, 0.1 mg/mL BSA and 50 μM DTT. […] Next, synthetic peptide substrates ([…]) were added to the mixture at final concentration of 0.2 μg/μL, followed by adding ATP at various concentrations. The 50 μL mixture was reacted at room temperature for 60 min. […]
(§2) In vitro kinase assay (ADP-GLO): We identified p38γ inhibitors using in vitro kinase assay by screening a library of kinase inhibitors: The library consists of 244 compounds on three plates (EMD Cat #539744, #539745, and #539746) that are mostly ATP mimics. […] IC50 values were determined using […] software (Biosoft, Cambridge, United Kingdom).
A general note: ADP-Glo turns the ADP formed in a reaction into a luminescent signal.

Series [2] has as its system p38γ. Put plainly: p38γ mRNA level and protein expression (Western blot). In kind it is cell-based. As to conditions: 4 hr. An excerpt:
qRT-PCR (real-time quantitative reverse transcription PCR): Total RNA was generated using TRIZOL reagent (Life Technologies, Carlsbad, Calif.) followed by double DNase treatment and column purification using Qiagen RNeasy Clean-up (Qiagen, Germantown, Md.). The Invitrogen […] III First-Strand Synthesis System was used for cDNA synthesis and TaqMan 5700 Sequence Detection System (Applied Biosystems, Foster City, Calif.) were used for qRT-PCR. All PCR reactions were run in triplicate. The amplified transcripts were quantified using the comparative CT method as described. cDNA and primers for MAPK11, 12, 13, and 14 and GAPDH (Table 9) were added to SYBR GREEN PCR Master Mix (SYBR Green I Dye, […]® DNA polymerase, dNTPs with dUTP and optimal buffer components; Applied Biosystems) and subjected to PCR amplification (1 cycle at 95° C. for 3 min; 35 cycles at 95° C. for 15 s and 55° C. for 30 s; 1 cycle at 50° C. for 2 min).
Background: In western blotting, separated proteins are transferred to a membrane and probed.

Series [3] concerns H3K27 acetylation. Put plainly: Immunofluorescence confocal microscopy of H3K27 acetylation. Format: cell-based, human. As to conditions: 800 nM, 10 hr. The procedure: Immunofluorescence Confocal microscopy: Hut 78 Cells were cytospun unto the slides and fixed with 3.8% paraformaldehyde for 30 min at room temperature (RT) and then permeabilized with 0.25% Triton X-100 in PBS, for 10 min at RT. The cells were washed twice with PBS and blocked in 3% BSA in PBS for 1 h at RT. […] Coverslips were permanently mounted with DAPI (life Technologies) for nuclear staining. Observations were carried out using a confocal laser scanning microscope (zeiss LSM 700). Primary antibodies were used at the following dilutions: anti-ß-tubulin (1:200), H3K27 ac (CST, dilution 1:500), p-p38 (CST, dilution 1:500), DLGH1 (abcam) 1:1000.

The test system of series [4] is Hut78 xenografts. As to conditions: for tumor growth: intraperitoneal, vs vehicle.
Method: Female and male 6-week-old NSG mice (NOD-scid IL2Rγ null) were purchased from Jackson Laboratory (Sacramento, Calif.). Hut78 cells were used for developing CTCL xenograft tumors. Briefly, 5 million cells in 100 μL (50% Matrigel/50% PBS) were injected subcutaneously into the right flank of each mouse, and tumor development was monitored every other day. Once the tumors are were palpable and reached 100 mm^3 in volume, treatment was commenced. […] Mice were treated every two days via intraperitoneal injection. Tumors were measured twice per week using calipers.
The target in series [5] is PI3K p110γ (Homo sapiens, UniProt P48736). The settings on record: summarized from Selleck and Apexbio; read-out: IC50 of PI3K Isoforms, p110γ; cited from earlier work.
PI3K p110γ, sequence (P48736 whole entry, canonical isoform): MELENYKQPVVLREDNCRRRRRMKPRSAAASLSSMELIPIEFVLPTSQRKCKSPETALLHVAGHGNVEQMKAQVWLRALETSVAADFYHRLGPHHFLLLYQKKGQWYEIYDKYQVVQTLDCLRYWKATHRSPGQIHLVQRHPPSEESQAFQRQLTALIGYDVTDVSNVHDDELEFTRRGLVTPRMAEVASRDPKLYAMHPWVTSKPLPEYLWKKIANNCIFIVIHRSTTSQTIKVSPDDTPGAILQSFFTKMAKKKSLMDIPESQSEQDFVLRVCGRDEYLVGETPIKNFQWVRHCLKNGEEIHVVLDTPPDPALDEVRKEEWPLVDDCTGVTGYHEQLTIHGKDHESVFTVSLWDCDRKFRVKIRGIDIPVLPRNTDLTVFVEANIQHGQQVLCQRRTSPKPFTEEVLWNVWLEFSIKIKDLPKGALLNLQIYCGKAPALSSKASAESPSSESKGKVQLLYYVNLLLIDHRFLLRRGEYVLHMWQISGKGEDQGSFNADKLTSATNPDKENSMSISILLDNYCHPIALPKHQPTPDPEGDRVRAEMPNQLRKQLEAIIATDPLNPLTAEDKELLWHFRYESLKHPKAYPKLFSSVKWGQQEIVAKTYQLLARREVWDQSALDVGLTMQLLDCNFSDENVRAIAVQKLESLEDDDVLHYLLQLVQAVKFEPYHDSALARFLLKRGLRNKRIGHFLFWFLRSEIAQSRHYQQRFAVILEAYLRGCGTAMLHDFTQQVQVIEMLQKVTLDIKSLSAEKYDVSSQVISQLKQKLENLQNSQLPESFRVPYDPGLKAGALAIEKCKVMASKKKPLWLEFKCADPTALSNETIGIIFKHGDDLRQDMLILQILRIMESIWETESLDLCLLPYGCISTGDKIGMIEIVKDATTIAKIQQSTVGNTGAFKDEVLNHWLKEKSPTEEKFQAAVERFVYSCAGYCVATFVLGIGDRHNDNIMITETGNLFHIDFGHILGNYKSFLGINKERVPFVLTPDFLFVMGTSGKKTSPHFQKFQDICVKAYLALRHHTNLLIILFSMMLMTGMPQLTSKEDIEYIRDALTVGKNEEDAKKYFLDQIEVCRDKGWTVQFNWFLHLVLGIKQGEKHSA
Series [6] deals with T2, p38 γ (Homo sapiens, UniProt P53778).
T2 sequence (P53778 1-367): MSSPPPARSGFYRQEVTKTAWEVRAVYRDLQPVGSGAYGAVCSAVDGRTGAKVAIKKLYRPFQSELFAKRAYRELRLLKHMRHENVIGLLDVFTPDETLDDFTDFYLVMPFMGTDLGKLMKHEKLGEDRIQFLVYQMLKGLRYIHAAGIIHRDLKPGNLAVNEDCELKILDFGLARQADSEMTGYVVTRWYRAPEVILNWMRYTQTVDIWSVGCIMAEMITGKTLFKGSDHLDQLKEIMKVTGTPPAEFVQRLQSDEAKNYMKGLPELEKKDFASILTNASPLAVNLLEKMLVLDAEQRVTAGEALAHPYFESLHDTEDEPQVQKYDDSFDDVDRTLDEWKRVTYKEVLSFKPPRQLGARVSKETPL
Put plainly: Radiometric in vitro kinase assay (SignalChem), p38 γ. In kind it is biochemical. Further details: purchased SignalChem (assay service). The settings on record: 200 nM.
Method: Radiometric in vitro kinase assay: Radiometric in vitro kinase assay was performed by [sequence]

The target in series [7] is T3, p38δ (Homo sapiens, UniProt O15264).
T3 sequence (O15264 1-365): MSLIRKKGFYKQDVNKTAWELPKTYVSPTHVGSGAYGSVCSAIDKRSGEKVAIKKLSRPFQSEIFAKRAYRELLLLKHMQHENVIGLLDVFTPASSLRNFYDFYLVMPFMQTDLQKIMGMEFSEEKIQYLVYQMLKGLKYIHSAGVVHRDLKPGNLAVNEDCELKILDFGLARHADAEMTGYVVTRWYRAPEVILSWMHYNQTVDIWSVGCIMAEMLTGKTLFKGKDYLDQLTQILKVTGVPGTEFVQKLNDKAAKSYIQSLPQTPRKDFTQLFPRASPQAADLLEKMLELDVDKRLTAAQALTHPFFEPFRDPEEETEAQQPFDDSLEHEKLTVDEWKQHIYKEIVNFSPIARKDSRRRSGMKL
Briefly: ADP-Glo in vitro kinase assay, p38δ. Format: biochemical. The arrangement: human recombinant p38 α, β, γ or δ protein (active full-length); purchased SignalChem; host or cells: baculovirus in Sf9 insect cells. The procedure:
as §1, §2

The structures appear in SMILES notation. Like-named read-outs stand apart in the source and are kept apart here.

T1 sequence (Q16539 whole entry): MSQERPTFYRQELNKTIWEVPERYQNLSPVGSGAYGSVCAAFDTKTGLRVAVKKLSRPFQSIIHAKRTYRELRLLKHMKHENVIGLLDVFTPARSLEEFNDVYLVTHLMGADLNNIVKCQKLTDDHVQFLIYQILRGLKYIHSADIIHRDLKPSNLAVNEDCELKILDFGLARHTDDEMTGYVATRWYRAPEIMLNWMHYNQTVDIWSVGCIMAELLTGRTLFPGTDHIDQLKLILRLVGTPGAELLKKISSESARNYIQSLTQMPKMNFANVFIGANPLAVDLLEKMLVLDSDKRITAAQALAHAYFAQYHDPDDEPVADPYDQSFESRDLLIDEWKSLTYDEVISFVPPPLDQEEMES

As a reminder, the IC50 is the concentration needed to halve the response being measured. As usually defined, the inhibition is the change of the read-out against control, counted positive when it falls. Read a high inhibition as strong suppression. Turning to `Cc1ccc([N+](=O)[O-])cc1S(=O)(=O)N(C)/N=C/c1cnc2ccc(Br)cn12` [Compound 1], the “dose-dependent inhibition of kinase activity” value in series [1] is “not”. Besides, the “mRNA level of p38 gamma” value in series [2] was “reduces the mRNA level”. For the same compound, the H3K27 acetylation entry in series [3] is on record as “blocked H3K27 acetylation”. For the same compound, the tumor growth entry was “statistically significant inhibition of tumor growth” in series [4] (2 mg/kg); “further significant reduction of tumor size” in series [4] (10 mg/kg); “significantly inhibited tumor growth” in series [4] (10 mg/kg, listed as F7/PIK75). Also, in series [4] (mouse, in vivo), the “toxic effects in animal studies” value is recorded as “did not observe any toxic effects”. The half-maximal inhibitory concentration (IC50) in series [5] is 76 nM; in series [7], 32.1 to 120 nM. Also, testing at 0.2 µM in series [6] gave an inhibition of 59%.
